From patent publication US6511974B1, “Tricyclic vasopressin agonists” (Wyeth, priority 1997, dated 2003)

Assays:
[1] = molecular target: T1, Vasopressin V2 (Rattus norvegicus, UniProt Q00788); experiment: Vasopressin V2 agonist effects in normal conscious water-loaded rats; type: in vivo; details: Sprague-Dawley (CD) rats, urine collected four hours; for Urine Volume (% decrease): 10 mg per kg oral, percent decrease in urine volume vs. control; for Osmolality (% Increase): 10 mg/kg oral, change in osmolality as percent of control
T1 construct: vasopressin V2 receptors of the nephrons of the kidney; tissue Charles River Laboratories, Inc; host or cells: whole living animal (kidney collecting ducts)
Description: Vasopressin V2 Agonist Effects of Test Compounds in Normal Conscious Water-Loaded Rats:
Male or female normotensive Sprague-Dawley rats (Charles River Laboratories, Inc., Kingston, N.Y.) of 350-500 g body weight were supplied with standard rodent diet (Purina Rodent Lab. Chow 5001) and water ad libitum. On the day of test, rats were placed individually into metabolic cages equipped with devices to separate the feces from the urine and containers for collection of urine. Test compound or reference agent was given at an oral dose of 10 mg/kg in a volume of 10 ml/kg. The vehicle used was 20% dimethylsulfoxide (DMSO) in 2.5% preboiled corn starch. Thirty minutes after dosing the test compound, rats were gavaged with water at 30 ml/kg into the stomach using a feeding needle. During the test, rats were not provided with water or food. Urine was collected for four hours after dosing of the test compound. At the end of four hours, urine volume was measured. Urinary osmolality was determined using a Fiske One-Ten Osmometer (Fiske Associates, Norwood, Mass., 02062) or an Advanced CRYOMATIC Osmometer, Model 3C2 (Advanced Instruments, Norwood, Mass.). Determinations of Na^+, K^+ and Cl^− ion were carried out using ion specific electrodes in a Beckman SYNCHRON EL-ISE Electrolyte System analyzer. The urinary osmolality should increase proportionally. In the screening test, two rats were used for each compound. If the difference in the urine volume of the two rats was greater than 50%, a third rat was used.

T1 sequence (Q00788 whole entry): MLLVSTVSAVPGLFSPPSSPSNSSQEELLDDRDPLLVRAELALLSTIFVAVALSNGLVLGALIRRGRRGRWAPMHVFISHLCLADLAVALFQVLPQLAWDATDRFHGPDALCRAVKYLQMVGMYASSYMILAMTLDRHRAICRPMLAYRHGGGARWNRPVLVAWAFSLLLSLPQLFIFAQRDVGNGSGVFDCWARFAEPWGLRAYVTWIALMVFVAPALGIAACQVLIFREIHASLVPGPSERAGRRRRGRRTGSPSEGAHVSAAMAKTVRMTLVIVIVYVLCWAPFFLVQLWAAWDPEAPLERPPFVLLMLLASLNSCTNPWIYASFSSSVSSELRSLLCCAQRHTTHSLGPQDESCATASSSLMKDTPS

Row | Structure (SMILES) | Urine Volume (% decrease) [1] | Osmolality (% Increase) [1] | melting point
1 | Cn1ncnc1-c1ccc(C(=O)N2Cc3cccn3Cc3ccccc32)c(Cl)c1 [Example 84, [2-Chloro-4-(2-methyl-2H-[1,2,4]triazol-3-yl)-phenyl]-(5H,11H-pyrrolo [2,1-c][1,4]benzodiazepin-10)-methanone] | 56% | 291% | –
2 | Cc1cnn(-c2ccc(C(=O)N3C=C4CC=CN4Cc4ccccc43)cc2)c1 [Example 60, [4-(4-Methyl-pyrazol-1-yl)-phenyl]-(5H,1H-pyrrolo[2,1-c][1,4]-benzodiazepin-10-yl)-methanone] | – | – | 179 to 181 °C
3 | Cc1ccn(-c2ccc(C(=O)N3Cc4cccn4Cc4ccccc43)c(Cl)c2)n1 [Example 9A] | 70% | 325% | –
4 | C#Cc1ccc(C(=O)N2Cc3cccn3Cc3ccccc32)c(Cl)c1 [Example 123, [2-Chloro-4-ethynyl-phenyl](5H-11H-pyrrolo [1,2-c][1,4]benzodiazepin-10-yl)methanone.] | 88% | 663% | –
